Measured values as given in ChEMBL document CHEMBL4261582, “Natural products as inhibitors of Leishmania major dihydroorotate dehydrogenase” (Eur J Med Chem, 2018).

Columns and labels:
[1] = target: T1, Dihydroorotate dehydrogenase (fumarate) (Leishmania major) (UniProt Q4QEW7); test: Binding affinity to Leishmania major DHODH assessed as change in melting temperature at 500 uM by differential scanning fluorimetry-based ThermoFMN assay
T1 sequence (whole entry): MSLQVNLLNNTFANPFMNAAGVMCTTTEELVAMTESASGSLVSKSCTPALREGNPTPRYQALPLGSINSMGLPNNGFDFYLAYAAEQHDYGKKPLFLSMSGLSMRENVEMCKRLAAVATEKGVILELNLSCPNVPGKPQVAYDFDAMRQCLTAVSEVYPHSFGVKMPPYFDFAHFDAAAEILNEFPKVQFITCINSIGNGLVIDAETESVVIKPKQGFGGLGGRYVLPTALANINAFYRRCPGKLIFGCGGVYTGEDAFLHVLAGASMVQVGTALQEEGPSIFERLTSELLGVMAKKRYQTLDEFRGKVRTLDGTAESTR

[2] = target: T1, Dihydroorotate dehydrogenase (fumarate) (Leishmania major); test: Binding affinity to Leishmania major DHODH assessed as change in melting temperature at 1000 uM by SYPRO orange dye-based differential scanning fluorimetry
[3] = target: T1, Dihydroorotate dehydrogenase (fumarate) (Leishmania major); test: Binding affinity to Leishmania major DHODH assessed as change in melting temperature at 100 uM by SYPRO orange dye-based differential scanning fluorimetry
[4] = target: T1, Dihydroorotate dehydrogenase (fumarate) (Leishmania major); test: Binding affinity to Leishmania major DHODH assessed as change in melting temperature at 100 uM by differential scanning fluorimetry-based ThermoFMN assay
[5] = target: T1, Dihydroorotate dehydrogenase (fumarate) (Leishmania major); test: Binding affinity to Leishmania major DHODH assessed as change in melting temperature at 1000 uM by differential scanning fluorimetry-based ThermoFMN assay
[6] = target: T1, Dihydroorotate dehydrogenase (fumarate) (Leishmania major); test: Binding affinity to Leishmania major DHODH assessed as change in melting temperature at 500 uM by SYPRO orange dye-based differential scanning fluorimetry
[7] = target: T2, Dihydroorotate dehydrogenase (fumarate) (Leishmania major, UniProt Q4QEW7); test: Inhibition of recombinant oligo-histidine-tagged Leishmania major DHODH expressed in Escherichia coli BL21(DE3) cells using DHO as substrate measured after 60 secs
T2 sequence (Q4QEW7 whole entry): T1 sequence (whole entry)

[8] = tested on: Trypanosoma brucei rhodesiense; test: Antitrypanosomal activity against Trypanosoma brucei rhodesiense STIB 900 trypomastigotes after 72 hrs by Alamar Blue assay; format: functional, organism-based; details: STIB 900, 72 h
Leishmania donovani = test: Antileishmanial activity against Leishmania donovani MHOM/ET/67/L82 amastigotes after 72 hrs by Alamar Blue assay; format: functional, organism-based; details: MHOM/ET/67/L82, 72 h
Trypanosoma cruzi [9] = test: Antitrypanosomal activity against Trypanosoma cruzi Tulahuen C2C4 trypomastigotes infected in rat skeletal myoblasts L-6 cells after 96 hrs by CPRG/Nonidet reagent based spectrophotometric method; format: functional, organism-based; details: Tulahuen C2C4, L6, 96 h
Leishmania braziliensis = test: Antileishmanial activity against Leishmania braziliensis H3227 MHOM/BR/94/H-3227 promastigotes after 72 hrs by MTT assay; format: functional, organism-based; details: H3227 MHOM/BR/94/H-3227, 72 h
Trypanosoma cruzi [10] = test: Antitrypanosomal activity against Trypanosoma cruzi trypomastigotes; format: functional, organism-based
[11] = target: Dihydroorotate dehydrogenase (quinone), mitochondrial (Homo sapiens) (UniProt Q02127); test: Inhibition of human DHODH at 100 uM
[12] = target: T1, Dihydroorotate dehydrogenase (fumarate) (Leishmania major); test: Inhibition of recombinant oligo-histidine-tagged Leishmania major DHODH expressed in Escherichia coli BL21(DE3) cells at 100 uM using DHO as substrate measured after 60 secs
Leishmania amazonensis [13] = test: Antileishmanial activity against Leishmania amazonensis WHOM/BR/75/Josefa amastigotes after 72 hrs by Neubauer chamber method; format: functional, organism-based
Leishmania amazonensis [14] = test: Antileishmanial activity against Leishmania amazonensis WHOM/BR/75/Josefa promastigotes after 72 hrs by Neubauer chamber method; format: functional, organism-based

Chain of Dihydroorotate dehydrogenase (quinone), mitochondrial (Homo sapiens) (Q02127 whole entry): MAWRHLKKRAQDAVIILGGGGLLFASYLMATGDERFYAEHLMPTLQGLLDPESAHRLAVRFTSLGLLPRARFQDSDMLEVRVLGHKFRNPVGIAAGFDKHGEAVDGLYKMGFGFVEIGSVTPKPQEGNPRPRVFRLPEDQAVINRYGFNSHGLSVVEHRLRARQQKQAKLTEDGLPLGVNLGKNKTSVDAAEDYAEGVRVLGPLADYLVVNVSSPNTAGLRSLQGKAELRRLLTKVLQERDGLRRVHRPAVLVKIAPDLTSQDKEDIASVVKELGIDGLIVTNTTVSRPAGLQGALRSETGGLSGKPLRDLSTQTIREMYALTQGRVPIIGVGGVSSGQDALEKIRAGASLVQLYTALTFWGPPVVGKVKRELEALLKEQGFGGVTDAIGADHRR

`CC[C@@H](C)[C@@]1(O)O[C@H]2C[C@@]3(C)OC(=CC3=O)/C(COC(C)=O)=C\[C@H]3OC(=O)[C@@]1(C)[C@H]23` showed a ΔTm [1] of -0.65 °C, a ΔTm [2] of -1.39 °C and a ΔTm [3] of -0.86 °C. For the same compound, the ΔTm [4] was -0.41 °C, the ΔTm [5] was -0.76 °C and the ΔTm [6] was -1.8 °C. For the same compound, the IC50 ([7]; read-out: IC50) was 1200 µM.

Work on `COc1ccc(-c2oc3cc(O)c(OC)c(O)c3c(=O)c2OC)cc1` [SANTIN] yielded an IC50 ([7]; read-out: IC50) of 262 µM.

Work on `O=c1c(O)c(-c2ccccc2)oc2cc(O)cc(O)c12` [GALANGIN] yielded an IC50 [8] of 61.1 µM, an IC50 (Leishmania donovani) of 5.55 µM and an IC50 (Trypanosoma cruzi [9]) of 73.3 µM. For the same compound, the IC50 ([7]; read-out: IC50) was 481 µM.

`COc1ccc(/C=C/C(=O)NC2CCCN2C(=N)N)cc1O` (stereo not drawn) was tested, and the IC50 ([7]; read-out: IC50) was 610 µM.

`CC[C@@H](C)[C@@]1(O)O[C@H]2C[C@@]3(C)OC(=CC3=O)/C(CO)=C\[C@H]3OC(=O)[C@@]1(C)[C@H]23` was tested, and the ΔTm [1] was -0.32 °C, the ΔTm [2] was -1.83 °C and the ΔTm [3] was -0.13 °C. It also gave a ΔTm [4] of -0.15 °C, a ΔTm [5] of -0.61 °C and a ΔTm [6] of -0.96 °C. For the same compound, the IC50 ([7]; read-out: IC50) was 985 µM and the IC50 ([7]; read-out: pIC50 (converted)) was 794 µM.

With `C=C1C(=O)O[C@@H]2C[C@H](C)[C@@]3(O)C[C@H](O)[C@@](C)(C[C@@H](OC(=O)C(C)C)[C@@H]12)O3` [TAGITININ A] the IC50 (Leishmania braziliensis) was 20.4 µM, the ΔTm [1] was -0.32 °C and the ΔTm [2] was -0.19 °C. It also gave a ΔTm [3] of -0.07 °C, a ΔTm [4] of -0.26 °C and a ΔTm [5] of -0.52 °C. It also gave a ΔTm [6] of -0.06 °C and an IC50 ([7]; read-out: IC50) of 796 µM.

In the case of `C=C1C(=O)O[C@@H]2/C=C(/CO)C3=CC(=O)[C@@](C)(C[C@@H](OC(=O)/C(C)=C/C)[C@@H]12)O3` [BUDLEIN A], the IC50 ([7]; read-out: IC50) is reported as 263 µM.

`C=C(C)C(=O)O[C@@H]1C[C@](C)(O)[C@@H]2C(=O)C=C(C)[C@@H]2[C@H]2OC(=O)C(=C)[C@@H]21` showed an IC50 ([7]; read-out: IC50) of 662 µM.

With `C=C1C(=O)O[C@@H]2[C@H]3C(C)=CC(=O)C3=C(C)C[C@@H](OC(=O)[C@]3(C)O[C@@H]3C)[C@@H]12` the ΔTm [1] was -0.64 °C, the ΔTm [2] was -1.01 °C and the ΔTm [3] was -0.38 °C. The ΔTm [4] was -0.26 °C, the ΔTm [5] was -0.85 °C and the ΔTm [6] was -0.75 °C. It also gave an IC50 ([7]; read-out: IC50) of 585 µM.

Work on `O=C(/C=C/c1ccc(O)c(O)c1)O[C@@H]1C[C@@](O)(C(=O)O)C[C@@H](O)[C@@H]1O` yielded an IC50 ([7]; read-out: IC50) of 1130 µM.

For `C=C(C)C(=O)O[C@H]1C[C@@]2(C)OC(=CC2=O)/C(C)=C\[C@H]2OC(=O)C(=C)[C@H]12`, the IC50 ([7]; read-out: IC50) was 278 µM and the IC50 (Trypanosoma cruzi [10]) was 514 µM.

Work on `O=C(/C=C/c1ccc(O)c(O)c1)O[C@@H]1[C@H](O)C[C@@](O)(C(=O)O)C[C@H]1OC(=O)/C=C/c1ccc(O)c(O)c1` yielded an IC50 ([7]; read-out: IC50) of 642 µM.

For `C=C1[C@@H]2CC[C@H]3[C@]4(C)CCC[C@@](C)(C(=O)O)[C@H]4CC[C@]3(C2)[C@H]1OC(=O)/C=C/c1ccccc1`, the IC50 ([7]; read-out: IC50) was 1420 µM.

`C=C1CC[C@H]2[C@@](C)(CCC[C@@]2(C)C(=O)O)[C@@H]1CCc1ccoc1` was tested, and the IC50 ([7]; read-out: IC50) was 2620 µM.

For `COc1ccc(-c2oc3cc(O)cc(O)c3c(=O)c2O)cc1O` [TAMARIXETIN], the inhibition [11] was 29%, the inhibition [12] was 46% and the IC50 [8] was 46.8 µM. It also gave an IC50 (Leishmania donovani) of 53.1 µM, an IC50 (Trypanosoma cruzi [9]) of 20.2 µM and an IC50 ([7]; read-out: IC50) of 93.7 µM.

In the case of `C=C1C[C@@]23CC[C@H]4[C@@](C)(CCC[C@@]4(C)C(=O)O)[C@@H]2CC[C@@H]1C3` [KAURENOIC ACID], the inhibition [11] is reported as 28%, the inhibition [12] is reported as 40% and the IC50 (Leishmania amazonensis [13]) is reported as 11.7 µM. For the same compound, the IC50 (Leishmania amazonensis [14]) was 93.3 µM and the IC50 ([7]; read-out: IC50) was 31.5 µM.

With `O=c1c(O)c(-c2ccc(O[C@@H]3O[C@H](CO)[C@@H](O)[C@H](O)[C@H]3O)c(O)c2)oc2cc(O)cc(O)c12` [SPIRAEOSIDE] the inhibition [11] was 16%, the inhibition [12] was 35% and the IC50 ([7]; read-out: IC50) was 163 µM.

For `O=c1cc(-c2ccc(O)cc2)oc2cc(O[C@@H]3O[C@H](CO)[C@@H](O)[C@H](O)[C@H]3O)cc(O)c12` [APIGETRIN], the inhibition [11] was 10%, the inhibition [12] was 47% and the IC50 [8] was 52.5 µM. It also gave an IC50 (Leishmania donovani) of 4.86 µM, an IC50 (Trypanosoma cruzi [9]) of 69.4 µM and an IC50 ([7]; read-out: IC50) of 105 µM.

For `O=c1ccc2ccc(O)cc2o1` [UMBELLIFERONE], the IC50 [8] was 319 µM, the IC50 (Leishmania donovani) was 172 µM and the IC50 (Trypanosoma cruzi [9]) was 555 µM. For the same compound, the IC50 ([7]; read-out: IC50) was 467 µM.
